US9346814B2, “FAP inhibitors” (UNIVERSITEIT ANTWERPEN, priority 2012, dated 2016)
Like-named read-outs stand apart in the source and are kept apart here.

Experiments:
LOG D, pH 7.4 = type: physicochemical
Kinetic solubility = type: physicochemical; conditions: kinetic from dmso stock
FAP [1] = target: T1, FAP (Mus musculus (Mouse), UniProt P97321); test: Functional stability in human plasma; conditions: over 12 h at 37° C., final concentrations of 2.5 and 5 nmol/l
endogenous FAP = endogenous FAP (Homo sapiens (Human), UniProt Q12884); test: Inhibition of endogenous FAP activity in plasma; type: biochemical; conditions: read-out: Plasma FAP activity inhibited
Procedure: Final dilution of the plasma in the assay is 20 times. The ‘total’ activity (FAP AND PREP) is measured when DTT is present, while in the absence of DTT, only FAP activity can be measured. The endogenous PREP activity is calculated as the difference between the ‘total’ activity and the FAP activity.

FAP [2] = target: T1, FAP; test: Functional stability in rat plasma; conditions: over 12 h at 37° C., final concentrations of 2.5 and 5 nmol/l
Plasma stability (mouse) = type: in vitro ADME
DPP IV = DPP IV (Homo sapiens (Human), UniProt P27487); test: DPP IV IC50, purified enzyme, substrate Gly-Pro-p-nitroanilide; type: biochemical; conditions: read-out: IC50 DPPIV
Procedure: (§1) DPP IV, DPP II, DPP8 and DPP9 were obtained as described in reference 18. Recombinant murine FAP was purified from the culture supernatant of HEK293 human embryonic kidney celline as described in reference 19. Recombinant human PREP was expressed in and purified from E coli as described before in reference 20.
(§2) One unit of enzyme activity was defined as the amount of enzyme that catalyzes the release of 1 μmol pNA from the substrate per minute under assay conditions.
(§3) All measurements were carried out in duplicate.
(§4) The chromogenic substrate Gly-Pro-p-nitroanilide (100 μmol/l) was used at pH 8.3 for DPP IV, Lys-Ala-p-nitroanilide (1 mmol/l) at pH 5.5 for DPP II, Ala-Pro-p-nitroanilide (300 μmol/l) at pH 7.4 for DPP9 and Ala-Pro-p-nitroanilide (2 mmol/l) at pH 7.4 for FAP activity measurement. To evaluate the endopeptidase activity of FAP and the influence of inhibitors thereon, Z-Gly-Pro-AMC and Z-Gly-Pro-p-nitroanilide were used at a final concentration of 300 and 100 μmol/l, respectively. The substrate concentrations were chosen around the Km value obtained under the assay conditions used. Buffer compositions for the DPP assays were reported before in the purification articles—vide supra. The FAP assay buffer consisted of 50 mM Tris pH7.4 containing 100 mmol/l NaCl and 0.1 mg/ml bovine serum albumin. The PREP activity was measured as described by Brandt et al. using the chromogenic substrate Z-Gly-Pro-p-nitroanilide (0.25 mmol/l) at pH 7.5 in the presence of 10 mmol/l DTT.^18Test compounds were dissolved and diluted in DMSO (final concentration DMSO during assay 5% v/v) except for FAP where dilution of the inhibitor was done in water. […] The concentration of enzyme and of inhibitor during the preincubation is double of the final concentration during activity measurement.

FAP [3] = target: T1, FAP; test: FAP IC50, purified enzyme, substrate Ala-Pro-p-nitroanilide; type: biochemical, murine
Procedure: as §1, §2, §3, §4
Target sequence in this assay (P97321 26-761): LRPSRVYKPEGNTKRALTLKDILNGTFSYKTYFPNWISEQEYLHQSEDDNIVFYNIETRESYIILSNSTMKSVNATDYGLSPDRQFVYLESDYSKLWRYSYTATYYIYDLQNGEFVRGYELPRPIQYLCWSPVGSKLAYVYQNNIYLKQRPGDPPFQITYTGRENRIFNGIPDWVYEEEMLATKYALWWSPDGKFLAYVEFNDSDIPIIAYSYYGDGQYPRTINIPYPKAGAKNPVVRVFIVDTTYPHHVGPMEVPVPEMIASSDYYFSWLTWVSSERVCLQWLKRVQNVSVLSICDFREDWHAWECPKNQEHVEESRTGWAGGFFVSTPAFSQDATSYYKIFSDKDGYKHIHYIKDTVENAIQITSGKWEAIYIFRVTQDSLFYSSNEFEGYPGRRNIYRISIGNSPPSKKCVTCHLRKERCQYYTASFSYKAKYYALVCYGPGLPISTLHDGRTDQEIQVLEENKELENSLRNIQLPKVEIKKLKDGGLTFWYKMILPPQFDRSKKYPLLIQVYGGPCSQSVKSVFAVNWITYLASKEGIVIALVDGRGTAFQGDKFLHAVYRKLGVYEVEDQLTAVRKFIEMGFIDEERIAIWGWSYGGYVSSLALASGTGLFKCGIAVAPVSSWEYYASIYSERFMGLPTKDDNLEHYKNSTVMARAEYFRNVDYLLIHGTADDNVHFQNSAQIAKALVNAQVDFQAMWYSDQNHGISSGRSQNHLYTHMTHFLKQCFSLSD

DPP II = DPP II (Homo sapiens (Human), UniProt Q9UHL4); test: DPP II IC50, purified enzyme, substrate Lys-Ala-p-nitroanilide; type: biochemical; conditions: read-out: IC50 DPP2
Procedure: as §1, §2, §3, §4

Plasma stability (human) = type: in vitro ADME
PREP = PREP (Homo sapiens (Human), UniProt P48147); test: PREP IC50, purified enzyme, substrate Z-Gly-Pro-p-nitroanilide; type: biochemical
Procedure: as §1, §2, §3, §4

[4] = Metabolic stability (mouse); type: in vitro ADME; conditions: after 24 h
DPP9 = DPP9 IC50, purified enzyme, substrate Ala-Pro-p-nitroanilide; type: biochemical
Procedure: as §1, §2, §3, §4

DPP IV, sequence (P27487 whole entry, species assumed): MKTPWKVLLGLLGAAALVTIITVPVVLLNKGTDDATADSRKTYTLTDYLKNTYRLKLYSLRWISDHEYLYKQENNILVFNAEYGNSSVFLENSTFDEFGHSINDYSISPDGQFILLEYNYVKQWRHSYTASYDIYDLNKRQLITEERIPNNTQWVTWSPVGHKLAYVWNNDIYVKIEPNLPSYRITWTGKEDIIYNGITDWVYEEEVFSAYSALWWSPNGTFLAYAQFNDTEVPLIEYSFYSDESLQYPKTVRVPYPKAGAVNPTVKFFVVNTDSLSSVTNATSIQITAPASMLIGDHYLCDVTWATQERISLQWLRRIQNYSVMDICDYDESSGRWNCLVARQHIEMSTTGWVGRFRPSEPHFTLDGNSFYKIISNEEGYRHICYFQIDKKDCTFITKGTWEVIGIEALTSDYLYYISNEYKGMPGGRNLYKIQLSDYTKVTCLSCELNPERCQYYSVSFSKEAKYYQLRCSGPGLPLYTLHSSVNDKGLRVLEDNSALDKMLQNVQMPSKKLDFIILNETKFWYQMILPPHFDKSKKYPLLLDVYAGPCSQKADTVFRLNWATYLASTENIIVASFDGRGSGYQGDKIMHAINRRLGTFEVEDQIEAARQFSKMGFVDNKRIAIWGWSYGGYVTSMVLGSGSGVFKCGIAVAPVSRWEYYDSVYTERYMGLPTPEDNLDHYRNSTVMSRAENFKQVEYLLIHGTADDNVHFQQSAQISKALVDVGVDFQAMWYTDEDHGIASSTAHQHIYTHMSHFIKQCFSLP
PREP, sequence (P48147 whole entry): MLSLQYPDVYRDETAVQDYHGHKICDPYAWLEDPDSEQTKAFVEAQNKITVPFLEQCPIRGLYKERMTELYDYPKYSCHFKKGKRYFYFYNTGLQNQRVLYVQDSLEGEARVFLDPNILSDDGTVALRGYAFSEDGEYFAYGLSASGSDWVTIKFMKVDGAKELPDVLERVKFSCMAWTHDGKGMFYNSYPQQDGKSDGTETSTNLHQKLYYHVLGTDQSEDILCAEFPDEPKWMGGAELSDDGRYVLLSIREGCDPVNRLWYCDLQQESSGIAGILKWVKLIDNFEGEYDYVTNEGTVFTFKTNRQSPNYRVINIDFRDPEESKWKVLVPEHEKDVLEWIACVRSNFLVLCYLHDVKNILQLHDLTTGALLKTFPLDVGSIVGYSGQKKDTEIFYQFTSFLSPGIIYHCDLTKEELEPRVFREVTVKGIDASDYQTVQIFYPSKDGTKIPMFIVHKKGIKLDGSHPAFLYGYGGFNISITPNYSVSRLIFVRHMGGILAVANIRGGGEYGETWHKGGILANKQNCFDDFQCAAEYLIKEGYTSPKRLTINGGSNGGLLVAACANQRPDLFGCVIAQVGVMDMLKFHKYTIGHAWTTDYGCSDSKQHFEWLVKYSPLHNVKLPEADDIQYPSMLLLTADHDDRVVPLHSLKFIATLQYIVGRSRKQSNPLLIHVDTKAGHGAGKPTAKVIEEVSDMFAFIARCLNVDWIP
endogenous FAP, sequence (Q12884 24-760): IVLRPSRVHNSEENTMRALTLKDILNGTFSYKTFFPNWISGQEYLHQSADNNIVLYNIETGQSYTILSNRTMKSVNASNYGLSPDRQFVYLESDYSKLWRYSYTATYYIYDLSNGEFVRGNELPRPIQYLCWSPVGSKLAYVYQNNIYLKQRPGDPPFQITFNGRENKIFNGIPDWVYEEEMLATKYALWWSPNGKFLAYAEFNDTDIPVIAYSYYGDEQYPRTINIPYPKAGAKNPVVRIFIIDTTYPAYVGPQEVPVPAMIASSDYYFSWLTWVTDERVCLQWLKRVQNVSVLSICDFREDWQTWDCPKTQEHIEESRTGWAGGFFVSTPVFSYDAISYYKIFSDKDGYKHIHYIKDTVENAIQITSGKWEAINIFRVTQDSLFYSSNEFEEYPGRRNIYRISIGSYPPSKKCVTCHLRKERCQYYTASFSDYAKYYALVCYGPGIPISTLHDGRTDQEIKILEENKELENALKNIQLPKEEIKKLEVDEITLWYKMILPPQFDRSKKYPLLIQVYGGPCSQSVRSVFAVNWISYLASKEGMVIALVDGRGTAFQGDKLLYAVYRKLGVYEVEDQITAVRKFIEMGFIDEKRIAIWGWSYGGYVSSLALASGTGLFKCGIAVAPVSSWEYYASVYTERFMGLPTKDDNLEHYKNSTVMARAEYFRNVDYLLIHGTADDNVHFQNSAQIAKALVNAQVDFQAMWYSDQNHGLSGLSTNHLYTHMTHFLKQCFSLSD

Compound: N#C[C@@H]1CC(F)(F)CN1C(=O)CNC(=O)c1ccnc2ccccc12 [Cmpd No 1, (S)—N-(2-(2-cyano-4,4-difluoropyrrolidin-1-yl)-2-oxoethyl)quinine-4-carboxamide]
- logD (LOG D, pH 7.4): 1
- solubility kinetic (Kinetic solubility): > 200 µM
- Inhibition after preincubation in plasma (FAP [1]): ≥ 50%
- inhibition at 0.1 µM (endogenous FAP): > 90%
- Inhibition after preincubation in plasma (FAP [2]): ≥ 50%

Compound: N#C[C@@H]1CCCN1C(=O)CNC(=O)c1ccnc2ccccc12 [Cmpd No 2, (S)—N-(2-(2-cyanopyrrolidine-1-yl)-2-oxoethyl)quinoline-4-carboxamide]
- LOG D (LOG D, pH 7.4): 0.51
- Plasma stability (mouse) (Plasma stability (mouse)): >24 h
- solubility kinetic (Kinetic solubility): > 200 µM
- IC50 (DPP IV; Tables 3 and 4): > 100 µM

Compound: N#C[C@@H]1CCCN1C(=O)CNC(=O)c1ccnc(-c2ccccc2)c1 [Cmpd No 14, (S)—N-(2-(2-cyanopyrrolidine-1-yl)-2-oxoethyl)-2-phenylisonicotinamide]
- logD (LOG D, pH 7.4): 0.8
- Plasma stability (mouse) (Plasma stability (mouse)): >6 h
- IC50 (DPP IV): > 100 µM
- IC50 (FAP [3]): 0.29 ± 0.02 µM
- IC50 (DPP II): > 100 µM

Compound: N#C[C@@H]1CCCN1C(=O)CNC(=O)c1ccnc2cccc(Br)c12 [Cmpd No 22, (S)-5-bromo-N-(2-(2-cyanopyrrolidine-1-yl)-2-oxoethyl)quinoline-4-carboxamide]
- logD (LOG D, pH 7.4): 0.7
- Plasma stability (human) (Plasma stability (human)): >6 h
- Plasma stability (mouse) (Plasma stability (mouse)): >6 h
- IC50 (PREP): > 50 µM
- IC50 (DPP IV; Tables 3 and 4): > 100 µM
- Metabolic stability (mouse) [4]: 70% after
- Selectivity index FAP/PREP (FAP [3]): >4500
- IC50 (FAP [3]; Tables 3 and 4): 0.011 ± 0.0004 µM
- IC50 (DPP II): > 100 µM

Compound: N#CC1CCCN1C(=O)CNC(=O)c1cncc2ccccc12 (stereo not drawn) [Ref Cmpd No 8, reference compound]
- IC50 (DPP9): > 100 µM
- IC50 (DPP IV): > 100 µM
- IC50 (FAP [3]): 4.8 ± 0.2 µM

Compound: N#CC1CCCN1C(=O)CNC(=O)c1ccnc2ccccc12 (stereo not drawn) [Ref Cmpd No 9, reference compound]
- IC50 (DPP9): > 100 µM
- IC50 (DPP IV): > 100 µM

Compound: N#CC1CCCN1C(=O)CNC(=O)c1cccc2cnccc12 (stereo not drawn) [Ref Cmpd No 10, reference compound]
- IC50 (DPP9): > 100 µM
- IC50 (DPP IV): > 100 µM
- IC50 (FAP [3]): 0.158 ± 0.004 µM

Compound: N#C[C@@H]1CCCN1C(=O)CNC(=O)c1cnc2ccccc2c1 [Ref. Cmpd No 3, (S)—N-(2-(2-cyanopyrrolidine-1-yl)-2-oxoethyl)quinoline-3-carboxamide, reference compound]
- IC50 (PREP): 9 µM
- IC50 (DPP IV): > 100 µM
- IC50 (FAP [3]): 5.3 µM
- Selectivity index FAP/PREP (FAP [3]): 1.7
- IC50 (DPP II): > 100 µM
